According to US4434159A, “Pharmaceutical composition for intrarectal administration, and suppository prepared therefrom” (Teijin Limited, priority 1980, dated 1984):

Test system: blood glucose level
Test: Decrease in blood glucose level after administration of insulin suppositories to rabbits
Format: in vivo
Conditions: 0.32 u/kg intramuscularly administered
Method: 500 mg of the dispersion was filled into a gelatin capsule for suppositories to form a gelatin capsule suppository. One capsule contained 9.6 units of insulin. In the same manner as above, insulin suppositories were prepared using the other absorption aids shown in Table 4 instead of ascorbic acid. The content (units) of insulin and the amounts of the absorption aids and the base (fractionated coconut oil) were as shown in Table 4. […] Each time, 0.5 ml of the blood was withdrawn from the ear vein. The glucose level of the blood was measured by the glucose oxidase method. Table 4 summarizes the decrease (%) of the blood glucose level from that before the administration.

## Insulin: porcine insulin, intramuscularly administered as comparison
30 minutes
  Decrease (%) in blood glucose level from that before administration: 13.7%
1 hour
  Decrease (%) in blood glucose level from that before administration: 32.6%
2 hours
  Decrease (%) in blood glucose level from that before administration: 36.2%
3 hours
  Decrease (%) in blood glucose level from that before administration: 15.2%
